Results: patent US20250195472A1, “Indole Alkaloid as Antineoplastic Agent” (NAPP TECNOLOGIAS, S.A. DE C.V., priority 2021, published 2025)

What was measured:
HCT-15 (colon) = assay: Sulforhodamine B growth inhibition, HCT-15 (colon); assay type: cell-based, human; conditions: for inhibition at 100 µM: Homo sapiens, HCT-15, read-out: Growth inhibition by cell line (%) HTC-15
Protocol: (§1) For the evaluation of the cytotoxic effect of Andranone on neoplastic cells, 6 cell lines were used:
(§2) HCT-15 (colon), MCF-7 (breast), K-562 (leukemia), U-251 (central nervous system), PC-3 (prostate), SKUL (lung) and COST-7 (cervical uterus) from the National Cancer Institute (NCI) of the United States. The cytotoxicity of Andranone was determined in sixfold microcultures using preferable Andranone concentrations between 0.1 and 1.0 μM, more specifically between 0.1 and 0.6 μM and mostly between 0.1 and 0.3 μM. Cell viability and growth were measured indirectly by the sulforhodamine B method according to procedures validated by the NCI, using salicylic acid and Mezalasin as negative control compounds, and Cis-platinum as a control antineoplastic drug at concentrations of 100 μM.

MCF-7 (breast) = assay: Sulforhodamine B growth inhibition, MCF-7 (breast); assay type: cell-based, human; conditions: for inhibition at 100 µM: Homo sapiens, MCF7, read-out: Growth inhibition by cell line (%) MCF-7
Protocol: as §1, §2

K-562 (leukemia) = assay: Sulforhodamine B growth inhibition, K-562 (leukemia); assay type: cell-based, human; conditions: for inhibition at 100 µM: Homo sapiens, K562, read-out: Growth inhibition by cell line (%) K-562
Protocol: as §1, §2

[1] = test system: U-251 (central nervous system); assay: Sulforhodamine B growth inhibition, U-251 (central nervous system); assay type: cell-based, human; conditions: for inhibition at 100 µM: Homo sapiens, U-251, read-out: Growth inhibition by cell line (%) U-251
Protocol: as §1, §2

PC-3 (prostate) = assay: Sulforhodamine B growth inhibition, PC-3 (prostate); assay type: cell-based, human; conditions: for inhibition at 100 µM: Homo sapiens, read-out: Growth inhibition by cell line (%) PC-3
Protocol: as §1, §2

SKUL (lung) = assay: Sulforhodamine B growth inhibition, SKUL (lung); assay type: cell-based, human; conditions: for inhibition at 100 µM: Homo sapiens, read-out: Growth inhibition by cell line (%) SKUL
Protocol: as §1, §2

COST-7 (cervical uterus) = assay: Sulforhodamine B growth inhibition, COST-7 (cervical uterus); assay type: cell-based, human; conditions: for inhibition at 100 µM: Homo sapiens, read-out: Growth inhibition by cell line (%) COST-7
Protocol: as §1, §2

U-251 cell line = assay: Fluorescence analysis of effect on the cell membrane; assay type: cell-based, human; conditions: high and low concentration (10 and 100 μM)
Protocol: To determine the Andranone action mechanism on neoplastic cells, a fluorescence analysis was performed on cells of the U-251 cell line treated with 10 and 100 μM of cis-platinum and 0.1 and 0.2 μM of Andranone.

[2] = test system: PFSK-1 (brain, cerebral hemisphere); assay: In vitro cytotoxic activity IC50, PFSK-1; assay type: cell-based, human
Text: (§3) Additionally, the cytotoxic activity was weighted by the IC50 of Andranone on 12 cell lines of neuronal origin, PFSK-1 (brain, cerebral hemisphere); A-172 (Glioblastoma, patient); SW1088 (Brain Fibroblast); Daoy (Brain, Cerebellum); 1321N1 (Normal brain cells) HT-29 (Colorectal Carcinoma); SW-620 (Colorectal carcinoma); H-358 (Lung carcinoma); A-549 (Lung carcinoma); LA-N-5 (Neuroblastoma); SK—N-SH (Neuroblastoma); and L-929 (Mouse fibrosarcoma) using Bevacizumab as a control. The IC50 determination of Andranone was carried out in microcultures in sixfold.

A-172 (Glioblastoma) = assay: In vitro cytotoxic activity IC50, A-172; assay type: cell-based, human
Text: as §3

[3] = test system: SW1088 (Brain Fibroblast); assay: In vitro cytotoxic activity IC50, SW1088; assay type: cell-based, human
Text: as §3

Daoy (Brain, Cerebellum) = assay: In vitro cytotoxic activity IC50, Daoy; assay type: cell-based, human
Text: as §3

[4] = test system: 1321N1 (Normal brain cells); assay: In vitro cytotoxic activity IC50, 1321N1; assay type: cell-based, human
Text: as §3

[5] = test system: HT-29 (Colorectal Carcinoma); assay: In vitro cytotoxic activity IC50, HT-29; assay type: cell-based, human
Text: as §3

[6] = test system: SW-620 (Colorectal carcinoma); assay: In vitro cytotoxic activity IC50, SW-620; assay type: cell-based, human
Text: as §3

H-358 (Lung carcinoma) = assay: In vitro cytotoxic activity IC50, H-358; assay type: cell-based, human
Text: as §3

A-549 (Lung carcinoma) = assay: In vitro cytotoxic activity IC50, A-549; assay type: cell-based, human
Text: as §3

LA-N-5 (Neuroblastoma) = assay: In vitro cytotoxic activity IC50, LA-N-5; assay type: cell-based, human
Text: as §3

SK-N-SH (Neuroblastoma) = assay: In vitro cytotoxic activity IC50, SK-N-SH; assay type: cell-based, human
Text: as §3

[7] = test system: L-929 (Mouse fibrosarcoma); assay: In vitro cytotoxic activity IC50, L-929; assay type: cell-based
Text: as §3

[8] = test system: human peripheral blood lymphocytes; assay: Micronucleus test in human peripheral blood lymphocytes; assay type: cell-based
Protocol: […] At 44 h, cytochalasin B (4.5 μg/mL) was added to all cultures and at 72 h the lymphocytes were harvested by centrifugation at 1500 rpm for 10 min. The cell bud was divided into 2 parts, one to perform the micronucleus test and the other was kept in PBS (pH 7.5) at −80° C. to perform the RT-qPCR tests.
For the micronucleus test, the first part of the cell bud was prefixed with 1 mL of Carnoy's fixative (3:1) and centrifuged at 1500 rpm for 10 min. The supernatant was removed, and the cell bud was resuspended. 5 mL of Carnoy fixative was added and centrifuged again at 1500 rpm for 10 min. This step was repeated 2 more times. Lamellae were made on slides using the drip technique and allowed to air dry. The samples were stained in 5% Giemsa dye and analyzed in the optical microscope at 40× to determine the frequency of micronuclei in 1000 cells (in duplicate).

## N.N.[Cl][Pt][Cl] [Cisplatin]
HCT-15 (colon); 100 μM
  Growth inhibition by cell line (%) HTC-15: 87.49%
MCF-7 (breast); 100 μM
  Growth inhibition by cell line (%) MCF-7: 42.65%
K-562 (leukemia); 100 μM
  Growth inhibition by cell line (%) K-562: 79.15%
[1]; 100 μM
  Growth inhibition by cell line (%) U-251: 65.9%
PC-3 (prostate); 100 μM
  Growth inhibition by cell line (%) PC-3: 32.42%
SKUL (lung); 100 μM
  Growth inhibition by cell line (%) SKUL: 81.35%
COST-7 (cervical uterus); 100 μM
  Growth inhibition by cell line (%) COST-7: 43.39%
U-251 cell line
  fluorescence analysis, cell membrane / cell death: cell membrane alteration without being so obvious

## Nc1ccc(O)c(C(=O)O)c1 [Mesalazine]
HCT-15 (colon)
  inhibition at 100 µM: < 3.1%
MCF-7 (breast)
  inhibition at 100 µM: 11.9%
K-562 (leukemia)
  inhibition at 100 µM: 8.1%
[1]
  inhibition at 100 µM: 6.3%
PC-3 (prostate)
  inhibition at 100 µM: 3.1%
SKUL (lung)
  inhibition at 100 µM: < 3.1%
COST-7 (cervical uterus)
  inhibition at 100 µM: < 3.1%

## O=C(O)c1ccccc1O [Salicylic acid]
HCT-15 (colon)
  inhibition at 100 µM: < 3.1%
MCF-7 (breast)
  inhibition at 100 µM: 4.9%
K-562 (leukemia)
  inhibition at 100 µM: 6.6%
[1]
  inhibition at 100 µM: 6.8%
PC-3 (prostate)
  inhibition at 100 µM: 6.9%
SKUL (lung)
  inhibition at 100 µM: 10.1%
COST-7 (cervical uterus)
  inhibition at 100 µM: 11.2%

## Bevacizumab: Bevacizumab used as a control in the IC50 determination
[2]
  IC50: 31.2 µM
A-172 (Glioblastoma)
  IC50: 41.4 µM
[3]
  IC50: 47.3 µM
Daoy (Brain, Cerebellum)
  IC50: 29.4 µM
[4]
  IC50: 39.5 µM
[5]
  IC50: 38.4 µM
[6]
  IC50: 27.2 µM
H-358 (Lung carcinoma)
  IC50: 115 µM
A-549 (Lung carcinoma)
  IC50: 105 µM
LA-N-5 (Neuroblastoma)
  IC50: 79.3 µM
SK-N-SH (Neuroblastoma)
  IC50: 88.4 µM
[7]
  IC50: 126 µM

## Bleomycin
[8]; Bleomycin 3.2 μg/mL
  IDN: 1.60 ± 0.06
[8]; Bleomycin 3.2 mg/mL
  IPBC: 1.56 ± 0.05
  Relative cytotoxicity (%): 34.50%
[8]; positive control, 3.2 μg/mL, 72 h
  frequency of MN: significantly increased
